Key:
[1] = system: Mouse embryonic fibroblasts (MEFs); assay: iPS cell establishment from Nanog-GFP reporter MEFs, 4 genes (Oct3/4, Sox2, Klf4, c-Myc) introduced, with p38 inhibitors; format: cell-based; settings: for number of Nanog-GFP-positive colonies compared with physiological saline or DMSO: 10 μM inhibitor added on days 1 to 4 after the infection
Protocol: Mouse embryonic fibroblasts (MEFs) from a Nanog reporter mouse carrying Nanog-GFP—IRES-Puro^r [Okita K. et al, Nature 448, 313-317 (2007)] were transfected with four genes using a retrovirus to induce iPS cells.
Each retrovirus for reprogramming was prepared by transferring each of retroviral expression vectors (pMXs-Oct3/4, pMXs-Sox2, pMXs-Klf4, pMXs-cMyc:Cell, 126, 663-676 (2006)) to Plat-E cells (Morita, S. et al., Gene Ther. 7, 1063-1066) that had been seeded to a 6-well culture plate (Falcon) at 0.6×10^6 cells per well on the day before. The cells were cultured at 37° C. in the presence of 5% CO2 using DMEM/10% FCS [a culture broth prepared by adding 10% fetal calf serum to DMEM (Nacalai Tesque)]. To facilitate vector transfer, 4.5 μL of FuGene6 transfection reagent (Roche) was placed in 100 μL of Opti-MEM I Reduced-Serum Medium (Invitrogen), and the medium was allowed to stand at room temperature for 5 minutes. Subsequently, 1.5 μg of each expression vector was added, and the medium was allowed to further stand at room temperature for 15 minutes, after which they were added to the Plat-E culture broth. On day 2, the Plat-E supernatant was replaced with a fresh supply of the medium. On day 3, the culture supernatant was recovered and filtered through a 0.45 μm sterile filter (Whatman), and polybrene (Nacalai) was added at 4 μg/mL to yield a viral liquid.
Mouse embryonic fibroblasts (MEFs) were isolated from a fetal Nanog reporter mouse (13.5 days after fertilization). […] Not expressing the puromycin resistance gene as well, MEFs are susceptible to the antibiotic puromycin. As such, MEFs were seeded to a 6-well culture plate (Falcon), previously coated with 0.1% gelatin (Sigma), at 1.0×10^5 cells per well. DMEM/10% FCS served as the culture broth at 37° C. in the presence of 5% CO2. The following day, each retrovirus liquid was added, and this was followed by overnight infection to introduce the genes.
On day 1 after the viral infection, the medium for the MEFs was removed, and the cells were washed by the addition of 1 mL of PBS. After removing the PBS, 0.25% Trypsin/1 mM EDTA (Invitrogen) was added, and a reaction was carried out at 37° C. for about 5 minutes. After the cells floated up, the cells were suspended by the addition of an ES cell culture medium and 2500 cells were seeded to a 100 mm dish having mitomycin C-treated STO feeder cells seeded thereto previously. Cultivation was continued while replacing the ES cell culture medium with a fresh supply of the same medium every two days until a visible colony emerged.
To determine the effects of p38 inhibitors on the establishment of iPS cells by the introduction of the four mouse genes, cultivation was continued with the addition of 10 μM of the p38 inhibitor 5B202190, SB239063, or SB203580 (Calbiochem Company) to the medium per the schedule shown below. All these inhibitors were used in solution in DMSO. • 1. Oct3/4, Sox2, Klf4, c-Myc, each derived from mouse, saline • 2. Oct3/4, Sox2, Klf4, c-Myc, each derived from mouse, DMSO • 3. Oct3/4, Sox2, Klf4, c-Myc, each derived from mouse, SB202190 10 μM Day 1-4) • 4. Oct3/4, Sox2, Klf4, c-Myc, each derived from mouse, SB202190 10 μM (Day 1-8) • 5. Oct3/4, Sox2, Klf4, c-Myc, each derived from mouse, SB202190 10 μM (Day 9-16) • 6. Oct3/4, Sox2, Klf4, c-Myc, each derived from mouse, SB202190 10 μM (Day 1-16) • 7. Oct3/4, Sox2, Klf4, c-Myc, each derived from mouse, SB239063 10 μM (Day 1-4) • 8. Oct3/4, Sox2, Klf4, c-Myc, each derived from mouse, SB239063 10 μM (Day 1-8) • 9. Oct3/4, Sox2, Klf4, c-Myc, each derived from mouse, SB239063 10 μM (Day 9-16) • 10. Oct3/4, Sox2, Klf4, c-Myc, each derived from mouse, SB239063 10 μM (Day 1-16) • 11. Oct3/4, Sox2, Klf4, c-Myc, each derived from mouse, SB203580 10 μM (Day 1-4) • 12. Oct3/4, Sox2, Klf4, c-Myc, each derived from mouse, SB203580 10 μM (Day 1-8) • 13. Oct3/4, Sox2, Klf4, c-Myc, each derived from mouse, SB203580 10 μM (Day 9-16) • 14. […]

[2] = system: Human dermal fibroblasts (Tig109 line); assay: Human iPS cell colony formation, 4 genes introduced, various p38 inhibitors; format: cell-based; settings: for number of iPS cell colonies on day 40 after the infection: no colonies in either control group
Protocol: Human dermal fibroblasts (Tig109 line) were treated using a lentivirus (pLenti6/UbC-Slc7a1) according to the method described by Takahashi, K. et al. in Cell, 131: 861-872 (2007), to express the mouse ecotropic virus receptor Slc7a1 gene. These cells (2×10^5 cells/10 cm dish) were transfected with the four genes using a retrovirus according to the method described by Takahashi, K. et al. in Cell, 131: 861-872 (2007); each compound was added per the schedule shown below. • 1. Oct3/4, Sox2, Klf4, c-Myc, each derived from human, saline • 2. Oct3/4, Sox2, Klf4, c-Myc, each derived from human, DMSO (Day 5-35) • 3. Oct3/4, Sox2, Klf4, c-Myc, each derived from human, SB202190 10 μM (Day 5-20) • 4. Oct3/4, Sox2, Klf4, c-Myc, each derived from human, SB239063 10 μM (Day 5-20) • 5. Oct3/4, Sox2, Klf4, c-Myc, each derived from human, SB202190 10 μM (Day 21-35) • 6. Oct3/4, Sox2, Klf4, c-Myc, each derived from human, SB239063 10 μM (Day 21-35) • 7. Oct3/4, Sox2, Klf4, c-Myc, each derived from human, SB202190 10 μM (Day 5-35) • 8. Oct3/4, Sox2, Klf4, c-Myc, each derived from human, SB239063 10 μM (Day 5-35) On days 24, 32, and 40 after the infection, iPS cell colonies were counted. When the four factors (Oct3/4, Sox2, Klf4, C-Myc) were combined with SB239063 added on days 5 to 20 after the infection, the number of human iPS cell colonies increased on day 24 after the infection.

Row | SMILES | number of Nanog-GFP-positive colonies compared with physiological saline or DMSO [1] | number of iPS cell colonies on day 32 after the infection ([2]; 10 μM inhibitor) | number of iPS cell colonies on day 40 after the infection ([2]; 10 μM inhibitor) | effect on iPS cell colony number on day 32, inhibitor added day 21 to day 35 ([2]; 10 μM, Day 21-35) | effect on colony count when measured on day 28 after the infection ([1]; 10 μM inhibitor on days 1 to 4, counted day 28) | colony count compared with cells treated with physiological saline or DMSO ([1]; 10 μM inhibitor on days 1 to 4 after the infection, FIG. 1) | number of human iPS cell colonies on day 24 after the infection ([2]; 10 μM added on days 5 to 20)
1 | Oc1ccc(-c2nc(-c3ccc(F)cc3)c(-c3ccncc3)[nH]2)cc1 [SB202190, 4-(4-fluorophenyl)-2-(4-hydroxyphenyl)-5-(4-pyridyl)imidazole] | increased | capable of increasing the number of iPS cell colonies | increased remarkably | remarkable effects |  |  | 
2 | COc1nccc(-c2c(-c3ccc(F)cc3)ncn2[C@H]2CC[C@H](O)CC2)n1 [SB239063, trans-1-(4-Hydroxycyclohexyl)-4-(4-fluorophenyl)-5-(2-methoxypyrimidin-4-yl)imidazole] | increased |  | two |  | remarkable | tended to increase | increased

Source: US9447408B2, “Method of efficiently establishing induced pluripotent stem cells” (Kyoto University, priority 2010, dated 2016)
